Assay results: patent US20100317001A1, “METHOD OF USING TUMOUR RNA INTEGRITY TO MEASURE RESPONSE TO CHEMOTHERAPY IN CANCER PATIENTS” (LAURENTIAN UNIVERSITY, priority 2007, published 2010)

How the values were obtained:
[1] = system: breast cancer; conditions: after anthracycline-based chemotherapy; cited from earlier work
[2] = dose level 6, epirubicin plus docetaxel every 3 weeks (Schedule A) with pegfilgrastim support

## CC(=O)O[C@@]12CO[C@@H]1C[C@H](O)[C@@]1(C)C(=O)[C@H](O)C3=C(C)[C@@H](OC(=O)[C@H](O)[C@@H](NC(=O)OC(C)(C)C)c4ccccc4)C[C@@](O)([C@@H](OC(=O)c4ccccc4)[C@H]21)C3(C)C [docetaxel]
[1]
  breast cancer patients that respond: 35.4%
[2]
  maximum tolerated dose: 75 mg/m^2

## COc1cccc2c1C(=O)c1c(O)c3c(c(O)c1C2=O)C[C@@](O)(C(=O)CO)C[C@@H]3O[C@H]1C[C@H](N)[C@@H](O)[C@H](C)O1 [epirubicin]
[2]
  maximum tolerated dose: 105 mg/m^2

## CC(=O)O[C@H]1C(=O)[C@@]2(C)[C@H]([C@H](OC(=O)c3ccccc3)[C@]3(O)C[C@H](OC(=O)[C@H](O)[C@@H](NC(=O)c4ccccc4)c4ccccc4)C(C)=C1C3(C)C)[C@]1(OC(C)=O)CO[C@@H]1C[C@@H]2O [paclitaxel]
[1]
  breast cancer patients that respond: 33%
